Measured values taken from ChEMBL document CHEMBL1145390, “Synthesis and preliminary biological characterization of new semisynthetic derivatives of ramoplanin” (J Med Chem, 2007).
In brackets after ≈: the same amount, converted by molar mass.

Key:
Enterococcus faecalis [1] = assay: Antibacterial activity against Enterococcus faecalis after 24 hrs by broth microdilution method; assay type: functional; details: read-out: MIC
Enterococcus faecium [2] = assay: Antibacterial activity against vancomycin A-resistant Enterococcus faecium clinical isolate after 24 hrs by broth microdilution method; assay type: functional; details: read-out: MIC
Staphylococcus aureus [3] = assay: Antibacterial activity against methicillin-resistant Staphylococcus aureus clinical isolate after 24 hrs by broth microdilution method; assay type: functional; details: read-out: MIC
Escherichia coli = assay: Antibacterial activity against Escherichia coli SKF-12140 after 24 hrs by broth microdilution method; assay type: functional; details: read-out: MIC
Candida albicans = assay: Antifungal activity against Candida albicans SKF-2270 after 24 hrs by broth microdilution method; assay type: functional; details: read-out: MIC
[4] = Toxicity assessed as hemolysis in erythrocytes at 180 mg/L; assay type: cell-based, Erythrocyte; details: human, erythrocytes; read-out: Activity
[5] = Toxicity assessed as hemolysis in erythrocytes at 90 mg/L; assay type: cell-based, Erythrocyte; details: human, erythrocytes; read-out: Activity
Staphylococcus aureus [6] = assay: Antibacterial activity against vancomycin-intermediate resistant Staphylococcus aureus clinical isolate after 24 hrs by broth microdilution method; assay type: functional
Staphylococcus aureus [7] = assay: Antibacterial activity against methicillin-resistant and vancomycin-intermediate resistant Staphylococcus aureus clinical isolate after 24 hrs by broth microdilution method; assay type: functional; details: read-out: MIC
Enterococcus faecium [8] = assay: Antibacterial activity against Enterococcus faecium after 24 hrs by broth microdilution method; assay type: functional; details: read-out: MIC
Enterococcus faecalis [9] = assay: Antibacterial activity against vancomycin A-resistant Enterococcus faecalis after 24 hrs by broth microdilution method; assay type: functional; details: read-out: MIC
Staphylococcus aureus [10] = assay: Antibacterial activity against Staphylococcus aureus Smith after 24 hrs by broth microdilution method; assay type: functional; details: read-out: MIC
Streptococcus pyogenes = assay: Antibacterial activity against Streptococcus pyogenes C203 after 24 hrs by broth microdilution method; assay type: functional; details: C203, 24 h, read-out: MIC

SMILES	MIC (Enterococcus faecalis [1])	MIC (Enterococcus faecium [2])	MIC (Staphylococcus aureus [3])	MIC (Escherichia coli)	MIC (Candida albicans)	hemolysis at 180 mg/L [4]	hemolysis at 90 mg/L [5]	MIC (Staphylococcus aureus [6])	MIC (Staphylococcus aureus [7])	MIC (Enterococcus faecium [8])	MIC (Enterococcus faecalis [9])	MIC (Staphylococcus aureus [10])	MIC (Streptococcus pyogenes)
CCCCOc1ccc(C(=O)N[C@@H](CC(N)=O)C(=O)NC[C@@H]2C(=O)N[C@H](c3ccc(O)cc3)C(=O)N[C@H](CCCN)C(=O)N[C@H](C(C)C)C(=O)N[C@@H](c3ccc(O)cc3)C(=O)N[C@H](c3ccc(O)cc3)C(=O)N[C@@H]([C@@H](C)O)C(=O)N[C@@H](Cc3ccccc3)C(=O)N[C@H](CCCN)C(=O)N[C@@H](c3ccc(O[C@H]4O[C@H](CO)[C@@H](O)[C@H](O)[C@@H]4O[C@H]4O[C@H](CO)[C@@H](O)[C@H](O)[C@@H]4O)cc3)C(=O)N[C@H]([C@@H](C)O)C(=O)N[C@@H](c3ccc(O)cc3)C(=O)NCC(=O)N[C@@H](CC(C)C)C(=O)N[C@H](C)C(=O)N[C@@H](c3ccc(O)c(Cl)c3)C(=O)O[C@@H]2C(N)=O)cc1OCCCC	1 µg/mL (≈ 0.373 µM)	1 µg/mL (≈ 0.373 µM)	8 µg/mL (≈ 2.99 µM)	> 32 µg/mL	> 32 µg/mL	47%	0%	16 µg/mL (≈ 5.97 µM)	16 µg/mL (≈ 5.97 µM)	1 µg/mL (≈ 0.373 µM)	1 µg/mL (≈ 0.373 µM)	2 µg/mL (≈ 0.747 µM)	1 µg/mL (≈ 0.373 µM)
CCCCCCCCCC(=O)N[C@@H](CC(N)=O)C(=O)NC[C@@H]1C(=O)N[C@H](c2ccc(O)cc2)C(=O)N[C@H](CCCN)C(=O)N[C@H](C(C)C)C(=O)N[C@@H](c2ccc(O)cc2)C(=O)N[C@H](c2ccc(O)cc2)C(=O)N[C@@H]([C@@H](C)O)C(=O)N[C@@H](Cc2ccccc2)C(=O)N[C@H](CCCN)C(=O)N[C@@H](c2ccc(O[C@H]3O[C@H](CO)[C@@H](O)[C@H](O)[C@@H]3O[C@H]3O[C@H](CO)[C@@H](O)[C@H](O)[C@@H]3O)cc2)C(=O)N[C@H]([C@@H](C)O)C(=O)N[C@@H](c2ccc(O)cc2)C(=O)NCC(=O)N[C@@H](CC(C)C)C(=O)N[C@H](C)C(=O)N[C@@H](c2ccc(O)c(Cl)c2)C(=O)O[C@@H]1C(N)=O	0.125 µg/mL (≈ 0.0484 µM)	0.06 µg/mL (≈ 0.0232 µM)	2 µg/mL (≈ 0.774 µM)	> 32 µg/mL	> 32 µg/mL	41%	0%	4 µg/mL (≈ 1.55 µM)	8 µg/mL (≈ 3.1 µM)	0.25 µg/mL (≈ 0.0967 µM)	0.06 µg/mL (≈ 0.0232 µM)	2 µg/mL (≈ 0.774 µM)	0.25 µg/mL (≈ 0.0967 µM)
CC(C)C[C@@H]1NC(=O)CNC(=O)[C@H](c2ccc(O)cc2)NC(=O)[C@@H]([C@@H](C)O)NC(=O)[C@H](c2ccc(O[C@H]3O[C@H](CO)[C@@H](O)[C@H](O)[C@@H]3O[C@H]3O[C@H](CO)[C@@H](O)[C@H](O)[C@@H]3O)cc2)NC(=O)[C@@H](CCCN)NC(=O)[C@H](Cc2ccccc2)NC(=O)[C@H]([C@@H](C)O)NC(=O)[C@@H](c2ccc(O)cc2)NC(=O)[C@H](c2ccc(O)cc2)NC(=O)[C@@H](C(C)C)NC(=O)[C@@H](CCCN)NC(=O)[C@@H](c2ccc(O)cc2)NC(=O)[C@@H](CNC(=O)[C@H](CC(N)=O)NC(=O)c2ccc3ccccc3c2)[C@@H](C(N)=O)OC(=O)[C@H](c2ccc(O)c(Cl)c2)NC(=O)[C@@H](C)NC1=O	0.125 µg/mL (≈ 0.0484 µM)	0.25 µg/mL (≈ 0.0967 µM)	0.25 µg/mL (≈ 0.0967 µM)	> 32 µg/mL	> 32 µg/mL	40%	8%	1 µg/mL (≈ 0.387 µM)	2 µg/mL (≈ 0.774 µM)	0.25 µg/mL (≈ 0.0967 µM)	0.25 µg/mL (≈ 0.0967 µM)	0.125 µg/mL (≈ 0.0484 µM)	≤ 0.03 µg/mL
